Experimental data as given in patent publication US12410161B2, “Tetrahydrobenzo-quinoline sulfonamides derivative compounds” (UCB Biopharma SRL, priority 2019, dated 2025).

Biological target: T1, IgE-Tb binding to soluble IgE receptor FcεRIα-Y131A-AF488 (Homo sapiens, UniProt P0DOX4, N265Q/N371Q)
T1 construct: 86 nmoles of IgE-Fc(N265Q, N371Q) (Young et al., 1995)
Assay: In vitro FRET assay of IgE-Tb binding to FcεRIα receptor (protocol for most examples, 2 hours incubation)
Details: 5 nM IgE-Tb, 25 nM FcεRIα-Y131A-AF488; incubated 2 hours at room temperature; read-out: FRET IC50 range
Method: In vitro Biochemical Assay: Protocol for preparation of IgE-Tb reagent 86 nmoles of […]) (Young et al., 1995) at 172 μM in 100 mM NaHCO3, pH 9.5 was added to 1 mg of LanthaScreenTM Amine Reactive Tb Chelate (ThermoFisher catalogue number PV3583) and incubated for 16 hours at 20° C. The material was then buffer exchanged into Phosphate Buffered Saline (being, 137 mM NaCl, 2.7 mM KCl, 10 mM Na2HPO4, 1.8 mM K2HPO4, pH 7.4) and the material quantified and the degree of Tb conjugation determined by measuring the absorption at 280 nm and 343 nm. The integrity of the conjugated material was determined by analytical size exclusion chromatography on a 5200 HR 10×300 column (GE Healthcare). Typical conjugation ratios were 4:1 Tb:IgE-Fc. • Young R J., Owens, […]., Chan C M W., Shi J., Hide […]., Henry A J., Sutton B J., and Gould H J (1995) Protein Engineering 8:193-199 Protocol for preparation of […] reagent […] Oxidation was quenched with the addition of 40 μl of ethanediol and incubation for 60 minutes at 22° C. The protein was buffer exchanged in to conjugation buffer (50 mM NaHCO3, 150 mM NaCl, pH 9.5) and concentrated to 750 μM. 175 nmoles of protein was added to 1 mg of Alexa FluorTM 488 hydrazide (Invitrogen) and incubated for 16 hours at 22° C. […] The protein was buffer exchanged into Phosphate Buffered Saline (being, 137 mM NaCl, 2.7 mM KCl, 10 mM Na2HPO4, 1.8 mM K2HPO4, pH 7.4) and the material quantified and the degree of Alexa FluorTM 488 conjugation determined by measuring the absorption at 280 nm and 495 nm. The integrity of the conjugated material was determined by analytical size exclusion chromatography on a 5200 HR 10×300 column (GE Healthcare). Typical conjugation ratios were 2:1 Alexa FluorTM488: sFcεR1α • Cook J P D., Henry […]., Owens R J., Sutton B J., and Gould H J (1997) Biochemistry 36:15579-15588 The aim was to measure binding of IgE-Tb to receptor, and the inhibition thereof by compounds, using an in vitro Fluorescence Resonance Energy Transfer (FRET) Assay. Reagents FRET reagents used were IgE labelled with Terbium (FRET donor), and soluble IgE receptor FcεRIα with a Y131A mutation, labelled with Alexa FluorTM 488 (FRET acceptor). Unlabelled FcεRIα was also used to generate a background control. The assay buffer consisted of 20 mM Tris pH7.2, 150 mM NaCl, and 0.002% Tween, 1% DMSO. Assay Reaction For most of the examples the assay was conducted according to the following: Each assay reaction was conducted in a volume of 25 μl in a 384-well half-volume plate. 10 point compound serial dilutions (3-fold) were generated in DMSO at a concentration of ×50 that of the final assay concentration (FAC). Compound solutions were then prepared by IgE-Tb diluting 10-fold in assay buffer. For the assay, 5 μl of diluted compound was added to 10 μl of IgE-Tb, followed by addition of 10111 FcεRIα-Y131A-AF488. FRET reagents FACs were 5 nM IgE-Tb, 25 nM FcεRIα-Y131A-AF488. Usually the top FAC of compound in the assay was 10 μM. The final DMSO concentration was 2%. The minimum signal (MIN) was measured by adding 5 μl unlabelled FcεRIα at 1 μM (FAC=200 nM) to the FRET reagents. The maximum FRET signal (MAX) was measured in wells containing FRET reagents but no compound. The assay was incubated for 2 hours at room temperature, protected from light and evaporation, and with gentle agitation. FRET Measurement Measurement of FRET for each well was carried out by exciting at 330 nm and measuring emission at 495/520 nm using an Envision plate reader (Perkin Elmer). FRET ratio was calculated as follows: Emission at 520/Emission at 495×1000. The FRET ratio was used for the data analysis. Data Analysis Z' was calculated as follows (σ=standard deviation and μ=mean): 1-((3×σMAX)+(3×σMIN))/(μMAX-/μMIN) Z' above 0.5 was considered a good assay. Background signal (MIN) was subtracted from all wells. Using the background subtracted values, the percent inhibition by compound in each test-well was calculated as follows: 100-Test-well FRET ratio/MAX FRET ratio×100. […]

T1 sequence (P0DOX4 224-547 N265Q/N371Q limits assumed): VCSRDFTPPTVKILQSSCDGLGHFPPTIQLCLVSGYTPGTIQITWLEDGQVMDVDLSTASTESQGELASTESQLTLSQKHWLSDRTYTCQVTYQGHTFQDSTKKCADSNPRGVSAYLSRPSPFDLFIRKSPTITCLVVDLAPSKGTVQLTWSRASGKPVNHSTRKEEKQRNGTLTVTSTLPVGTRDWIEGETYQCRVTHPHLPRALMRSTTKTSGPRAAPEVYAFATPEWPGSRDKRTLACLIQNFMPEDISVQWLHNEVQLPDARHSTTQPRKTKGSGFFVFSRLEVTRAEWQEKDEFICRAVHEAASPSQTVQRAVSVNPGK

SMILES	IC50
Cc1nnc(-c2ccc(N[C@H]3CCc4cc5cnc(C6CC6)cc5c(S(=O)(=O)NCC(C)C)c4C3)cn2)o1 [Example 18, (7S)-3-cyclopropyl-7-[[6-(5-methyl-1,3,4-oxadiazol-2-yl)pyridin-3-yl]amino]-N-(2-methylpropyl)-6,7,8,9-tetrahydrobenzo[g]isoquinoline-5-sulfonamide]	50 to 100 nM
CC(C)CNS(=O)(=O)c1c2c(cc3cnc(C4CC4)cc13)CCC(Nc1nncn1-c1cccnc1)C2 (centres unmarked) [Example 15, 3-cyclopropyl-N-(2-methylpropyl)-7-[(4-pyridin-3-yl-1,2,4-triazol-3-yl)amino]-6,7,8,9-tetrahydrobenzo[g]isoquinoline-5-sulfonamide]	100 to 1000 nM
Cc1cc(Nc2nncn2C2CCc3cc4cnc(C5CC5)cc4c(S(=O)(=O)NCC(C)(C)F)c3C2)n(C)n1 (centres unmarked) [Example 2, 3-cyclopropyl-7-[3-[(2,5-dimethylpyrazol-3-yl)amino]-1,2,4-triazol-4-yl]-N-(2-fluoro-2-methylpropyl)-6,7,8,9-tetrahydrobenzo[g]isoquinoline-5-sulfonamide]	100 to 1000 nM
Cc1nnc(-c2ccc(N[C@@H]3CCc4cc5cnc(C6CC6)cc5c(S(=O)(=O)NCC(C)C)c4C3)cn2)o1 [Example 17, (7R)-3-cyclopropyl-7-[[6-(5-methyl-1,3,4-oxadiazol-2-yl)pyridin-3-yl]amino]-N-(2-methylpropyl)-6,7,8,9-tetrahydrobenzo[g]isoquinoline-5-sulfonamide]	100 to 1000 nM
Cc1cc(-n2cnnc2NC2CCc3cc4cnc(C5CC5)cc4c(S(=O)(=O)NCC(C)C)c3C2)n(C)n1 (centres unmarked) [Example 12, 3-cyclopropyl-7-[[4-(2,5-dimethylpyrazol-3-yl)-1,2,4-triazol-3-yl]amino]-N-(2-methylpropyl)-6,7,8,9-tetrahydrobenzo[g]isoquinoline-5-sulfonamide]	100 to 1000 nM
Cc1cc(-n2ccnc2NC2CCc3cc4cnc(C5CC5)cc4c(S(=O)(=O)NCC(C)C)c3C2)n(C)n1 (centres unmarked) [Example 20, 3-cyclopropyl-74(1-(2,5-dimethylpyrazol-3-yl)imidazol-2-yl]aminol-N-(2-methylpropyl)-6,7,8,9-tetrahydrobenzo[g]isoquinoline-5-sulfonamide]	100 to 1000 nM
Cc1cc(Nc2nncn2C2CCc3cc4cnc(C5CC5)cc4c(S(=O)(=O)NCC(C)C)c3C2)n(C)n1 (centres unmarked) [Example 13, 3-cyclopropyl-7-[3-[(2,5-dimethylpyrazol-3-yl)amino]-1,2,4-triazol-4-yl]-N-(2-methylpropyl)-6,7,8,9-tetrahydrobenzo[g]isoquinoline-5-sulfonamide]	1 to 50 nM
CC(C)CNS(=O)(=O)c1c2c(cc3cnc(C4CC4)cc13)CCC(C(=O)NCC(C)(C)C)C2 (centres unmarked) [Example 5, 3-cyclopropyl-N-(2,2-dimethylpropyl)-5-(2-methylpropylsulfamoyl)-6,7,8,9-tetrahydrobenzo[g]isoquinoline-7-carboxamide]	50 to 100 nM
Cc1ccc2c(C(=O)NC3CCc4cc5cnc(C6CC6)cc5c(S(=O)(=O)NCC(C)C)c4C3)c[nH]c2c1 (centres unmarked) [Example 11, N-[3-cyclopropyl-5-(2-methylpropylsulfamoyl)-6,7,8,9-tetrahydrobenzo[g]isoquinolin-7-yl]-6-methyl-1H-indole-3-carboxamide]	100 to 1000 nM
Cc1nnc(-c2ccc(NC3CCc4cc5cnc(C6CC6)cc5c(S(=O)(=O)NCC(C)(C)F)c4C3)cn2)o1 (centres unmarked) [Example 4, 3-cyclopropyl-N-(2-fluoro-2-methylpropyl)-7-[[6-(5-methyl-1,3,4-oxadiazol-2-yl)pyridin-3-yl]amino]-6,7,8,9-tetrahydrobenzo[g]isoquinoline-5-sulfonamide]	100 to 1000 nM
CC(C)CNS(=O)(=O)c1c2c(cc3cnc(C4CC4)cc13)CC(c1ncc(-c3cccnc3)[nH]1)CC2 (centres unmarked) [Example 22, 3-cyclopropyl-N-(2-methylpropyl)-8-(5-pyridin-3-yl-1H-imidazol-2-yl)-6,7,8,9-tetrahydrobenzo[g]isoquinoline-5-sulfonamide]	100 to 1000 nM
CCNc1c(NC2CCc3cc4cnc(C5CC5)cc4c(S(=O)(=O)NCC(C)C)c3C2)c(=O)c1=O (centres unmarked) [Example 19, 3-cyclopropyl-7-[[2-(ethylamino)-3,4-dioxocyclobuten-1-yl]amino]-N-(2-methylpropyl)-6,7,8,9-tetrahydrobenzo[g]isoquinoline-5-sulfonamide]	1 to 50 nM
Cc1ccc(N/C(=N/C#N)NC2CCc3cc4cnc(C5CC5)cc4c(S(=O)(=O)NCC(C)(C)F)c3C2)cc1 (centres unmarked) [Example 3, 2-Cyano-1-[3-cyclopropyl-5-[(2-fluoro-2-methyl-propyl)sulfamoyl]-6,7,8,9-tetrahydrobenzo[g]isoquinolin-7-yl]-3-(p-tolyl)guanidine]	100 to 1000 nM
CC(C)CNS(=O)(=O)c1c2c(cc3cnc(C4CC4)cc13)CCC(c1ncc(-c3cccnc3)[nH]1)C2 (centres unmarked) [Example 21, 3-cyclopropyl-N-(2-methylpropyl)-7-(5-pyridin-3-yl-1H-imidazol-2-yl)-6,7,8,9-tetrahydrobenzo[g]isoquinoline-5-sulfonamide]	1 to 50 nM
CC(C)CNS(=O)(=O)c1c2c(cc3cnc(C4CC4)cc13)CCC(n1cnnc1NCC1CC1)C2 (centres unmarked) [Example 16, 3-cyclopropyl-7-[3-(cyclopropylmethylamino)-1,2,4-triazol-4-yl]-N-(2-methylpropyl)-6,7,8,9-tetrahydrobenzo[g]isoquinoline-5-sulfonamide]	1 to 50 nM
CC(C)CNS(=O)(=O)c1c2c(cc3cnc(C4CC4)cc13)CCC(n1cnnc1Nc1cccnc1)C2 (centres unmarked) [Example 14, 3-cyclopropyl-N-(2-methylpropyl)-7-[3-(pyridin-3-ylamino)-1,2,4-triazol-4-yl]-6,7,8,9-tetrahydrobenzo[g]isoquinoline-5-sulfonamide]	1 to 50 nM
CC(C)CNS(=O)(=O)c1c2c(cc3cnc(C4CC4)cc13)CC(C(=O)NCC(C)(C)C)CC2 (centres unmarked) [Example 6, 3-cyclopropyl-N-(2,2-dimethylpropyl)-5-(2-methylpropylsulfamoyl)-6,7,8,9-tetrahydrobenzo[g]isoquinoline-8-carboxamide]	100 to 2000 nM
CC(C)CNS(=O)(=O)c1c2c(cc3cnc(C4CC4)cc13)CCC(C(=O)NCc1ccccc1)C2 (centres unmarked) [Example 8, N-benzyl-3-cyclopropyl-5-(2-methylpropylsulfamoyl)-6,7,8,9-tetrahydrobenzo[g]isoquinoline-7-carboxamide]	1 to 50 nM
CC(C)CNS(=O)(=O)c1c2c(cc3cnc(C4CC4)cc13)CC(C(=O)NCc1ccccc1)CC2 (centres unmarked) [Example 7, N-benzyl-3-cyclopropyl-5-(2-methylpropylsulfamoyl)-6,7,8,9-tetrahydrobenzo[g]isoquinoline-8-carboxamide]	100 to 1000 nM
Cc1cc(Nc2nncn2C2CCc3c(cc4cnc(C5CC5)cc4c3S(=O)(=O)NCC(C)(C)F)C2)n(C)n1 (centres unmarked) [Example 23, 3-cyclopropyl-8-[3-[(2,5-dimethylpyrazol-3-yl)amino]-1,2,4-triazol-4-yl]-N-(2-fluoro-2-methylpropyl)-6,7,8,9-tetrahydrobenzo[g]isoquinoline-5-sulfonamide]	100 to 2000 nM
